Source: US20190365666A1, “METHODS FOR PREVENTION AND TREATMENT OF CARDIOMETABOLIC SYNDROME AND COMPOSITIONS USED THEREIN” (OmniActive Health Technologies Limited, priority 2015, published 2019)

Legend:
[1] = Oxidative stress markers and antioxidant status (TBARS/MDA, TAC, SOD, CAT, GSHPx) in serum, retina and liver of control and HFD rats; format: in vivo, Sprague Dawley rats; settings: 2.5 mg/kg daily, 12 weeks
Protocol: (§1) Male Sprague Dawley rats (7 rats/group, age: 8 week, weight: 180±20 g) were housed in a controlled environment with a 12:12-h light-dark cycle at 22° C. and provided with rat chow and water ad libitum. All experiments were conducted under the National Institutes of Health's Guidelines for the Care and Use of Laboratory Animals and approved by the Ethics Committee of the Veterinary Control Institute. After acclimation for 2 weeks, the rats were divided into four groups: Rats were randomly divided into the following groups: (1) Control, (2) High Fat Diet (HFD) (42% of calories from fat), (3) control+beta-cryptoxanthin (2.5 mg/kg) 4) HFD (42% of calories from fat)+beta-cryptoxanthin (2.5 mg/kg) was administered daily as supplement for 12 weeks.
(§2) After a one week period of adaptation to laboratory conditions, the animals were randomly divided into four equal groups: 1) Control (n=7): untreated rats were allowed free access to a standard diet; 2) BCX Group, rats were fed a standard diet supplemented with beta-cryptoxanthin (n=7) 2.5 mg/kg; 3) HFD Group (high-fat diet; 42% of calories from fat; n=7): rats were fed a high-fat diet 4) HFD+BCX Group, rats were fed a high-fat diet (42% of calories from fat; n=7) supplemented with beta-cryptoxanthin 2.5 mg/kg. 5% suspension of beta-cryptoxanthin was dissolved in corn oil. At the end of the experiment, all rats were sacrificed by cervical dislocation. Blood samples were taken from rats in the morning upon overnight fasting for biochemical analyses and their visceral fat and liver samples were removed and weighed after sacrificing the animals.
The total antioxidant capacity (TAC) was measured using an antioxidant assay kit (Sigma, St Louis, Mo., USA). Trolox was used as an antioxidant standard to calculate Trolox equivalent antioxidant capacity; absorbance readings were taken at 520 nm. Lipid peroxidation was measured in terms of MDA formation, which is the major product of membrane lipid peroxidation done by a previously described method (Karatepe, 2004) with slight modification.
The liver MDA content was measured by high performance liquid chromatography (HPLC, Shimadzu, Tokyo, Japan) using a Shimadzu UV-vis SPD-10 AVP detector and a CTO-10 AS VP column in a mobile phase consisting of 30 mM KH2PO4 and methanol (82.5+17.5, v/v; pH 3.6) at a flow rate of 1.2 ml/min. Column effluents were monitored at 250 nm and the volume was 20 μl. The liver homogenate (10%, w/v) was prepared in 10 mM phosphate buffer (pH 7.4), centrifuged at 13,000×g for 10 min at 4° C., and the supernatant was collected and stored at −80° C. for MDA analysis (Karatepe, 2004). Activities of superoxide dismutase (SOD), catalase (CAT) and glutathione peroxidase (GPx) of homogenized liver were measured using a commercial kit (Cayman Chemical, Ann Arbor, Mich., USA) according to the manufacturer's instructions.

[2] = test system: BCO2, TNF-α, PPAR-γ, Nrf-2, NFkB, IRS-1, HO-1 in liver tissue; experiment: Western blot of liver tissue markers in HFD treated rats; format: in vivo, Sprague Dawley rats; settings: P<0.001
[3] = Serum glucose, insulin, leptin, adiponectin and lipid profile in control and HFD rats; format: in vivo, Sprague Dawley rats; settings: 2.5 mg/kg daily, 12 weeks
Protocol: as §1, §2
Blood was collected by cardiac puncture using an anticoagulant-free vacutainer tube, later centrifuged at 3,000×g for 10 min to obtain serum and kept frozen at −80° C. until it was assayed for biochemical parameters and malondialdehyde (MDA). Serum biochemical parameters were estimated using an automatic analyzer (Samsung LABGEO PT10, Samsung Electronics Co, Suwon, Korea). Repeatability and device/method precision of LABGEO^PT10 was established according to the IVR-PT06 guideline. Serum insulin, leptin and adiponectin levels were measured with the Rat Insulin Kit (Linco Research Inc, St. Charles, Mo., USA) by ELISA (Elx-800; Bio-Tek Instruments Inc, Vermont, USA).

[4] = test system: differentiated 3T3-L1 cells; experiment: Real time PCR gene expression (nutrigenomics) study in differentiated 3T3-L1 adipocytes; format: cell-based, murine; settings: 12.5 ug/mL, versus DMSO
Protocol: 3T3L1 murine adipocytes model system was used to understand basic cellular mechanisms associated with diabetes, obesity and related disorders. Nutrigenomics study was carried out to evaluate effect of beta-cryptoxanthin on adipocyte cells, particularly differentiated 3T3-L1 cells, the study was based on real-time polymerase chain reaction (Real time PCR) with dose 12.5 ug/mL. The effect of beta-cryptoxanthin on Adipocyte differentiation and its activity for bio markers PPARG, SCD-1, acetyl Coa carboxylase (ACC), SREBP-1, C/EBPα and FAS were evaluated.
See FIG. 4, where each set of bar graphs for tests with BCX and without BCX (DMSO) correspond from the leftside bar respectively with the heading legend of the factors tested (i.e. for the bar results of BCX, 0.9 for ACC alpha, 0.39 for C/EPB alpha, 0.33 for FAS, 0.7 for PPAR gamma, and 0.38 for SCD-1).

[5] = test system: VEGF, Nrf-2, NFkB, iNOS, ICAM-1, HO-1 in retina tissue; experiment: Western blot of retina tissue markers in HFD treated rats; format: in vivo, Sprague Dawley rats; settings: FIG. 8
[6] = Body weight, feed intake, visceral fat and liver weight in control and high fat diet rats; format: in vivo, Sprague Dawley rats; settings: 2.5 mg/kg daily, 12 weeks
Protocol: as §1
The experiment was performed using 28 male Sprague-Dawley rats (8 weeks old, weighing 180±20 g), purchased from the Inonu University Laboratory Animal Research Center (Malatya, Turkey). Rats were housed in cages in a temperature and humidity controlled environment, on a 12-hr light and 12-hr dark cycle, designed for the purpose of the study. The temperature inside the rat cages was 21±2° C., relative humidity was 55±5% and consecutive light-dark cycles lasted 12 hours. The protocol of the study was approved by the Animal Experimentation Ethics Committee of Inonu University (Malatya, Turkey). All procedures involving rats were conducted in strict compliance with relevant laws, the Animal Welfare Act, Public Health Services Policy, and guidelines established by the Institutional Animal Care and Use Committee of the Institute. Prior the starting the experiment, animals were assigned to either a regular diet (control; 12% of calories from fat) or a high-fat diet (HFD, 42% of calories from fat). Control or HFD composed according to the American Institute of Nutrition AIN-93 (Reeves et al., 1993) recommendations of casein (20%), soybean oil (7%), wheat starch (53.2%), sucrose (10%), potato starch (5%), 1-cysteine (0.3%), vitamin mix AIN-93M (1%) and mineral mix AIN-93M (3.5%). The high-fat diets (42% calories from fat) were obtained from the basal AIN-93 diet, by replacement of wheat starch with fat (tallow 15% and soybean oil 10%). For induction of obesity (insulin resistance), the rats were fed with HFD for 12 weeks
as §2

[7] = test system: BCO2, TNF-α, PPAR-γ, Nrf-2, NFkB, IRS-1, HO-1 in liver tissue; experiment: Western blot of liver tissue markers in HFD treated rats; format: in vivo, Sprague Dawley rats
Protocol: as §2
For Western blot analyses protein extraction was performed by homogenizing the liver in 1 ml ice-cold hypotonic buffer A, containing 10 mM2-[4-(2-Hydroxyethyl)-1-piperazinyl] ethanesulfonic acid [HEPES] (pH 7.8), 10 mMKCl, 2 mM MgCl2, 1 mM DTT, 0.1 mM EDTA, and 0.1 mM phenylmethylsulfonyl-fluoride (PMSF). The homogenates were added with 80 μl of 10% Nonidet P-40 (NP-40) solution and then centrifuged at 14,000×g for 2 min. The precipitates were washed once with 500 μl of buffer A plus 40 μl of 10% NP-40, centrifuged, re-suspended in 200 μl of buffer C [50 mM HEPES [pH 7.8], 50 mMKCl, 300 mM NaCl, 0.1 mM EDTA, 1 mM dihiothreitol [DTT], 0.1 mM PMSF, 20% glycerol], and recentrifugedat 14,800×g for 5 min. The supernatants were collected for determinations of NF-KB, VEGF, iNOS, ICAM, Nrf2, and HO-1 according to the method described by Sahin et al. [2012]. Equal amounts of protein (50 μg) were electrophoresed and subsequently transferred onto a nitrocellulose membrane (Schleicher and Schuell Inc., Keene, N.H., USA).
Antibodies against NF-κB, TNF-α, Nrf2, HO-1, PPAR-γ, and p-IRS1, (Abcam (Cambridge, UK) were diluted (1:1000) in the same buffer containing 0.05% Tween-20. Protein loading was controlled sing a monoclonal mouse antibody against β-actin (A5316; Sigma). Bands were analyzed densitometrically using an image analysis system (Image J; National Institute of Health, Bethesda, USA). (FIG. 12)

[8] = HFD rats, listed as BC, 2.5 mg/kg
[9] = HFD rats, listed as Beta-cryptoxanthin, 2.5 mg/kg
[10] = HFD rats, Western blot, P<0.001

## CC1=C(/C=C/C(C)=C/C=C/C(C)=C/C=C/C=C(C)/C=C/C=C(C)/C=C/C2=C(C)C[C@@H](O)CC2(C)C)C(C)(C)CCC1 [BCX, beta-cryptoxanthin]
[1]; HFD rats, 2.5 mg/kg
  Liver CAT: increased
  Liver SOD: increased
  Liver TBARS: decreased
  Retinal TBARS: reducing
  Serum TAC: increased
  Serum TBARS: reducing
[1]; [8]
  Liver CAT: 271.57 U/mg protein
  Liver GSHPx: 17.43 U/mg protein
  Liver SOD: 130.43 U/mg protein
  Liver TBARS: 2.98 nmol/mg protein
  Serum TAC: 0.64 U/mL
  Serum TBARS: 1.64 nmol/mL
[1]; [9]
  Liver CAT: increased
  Liver GSHPx: increased
  Liver SOD: increased
  Liver TBARS: decreased
[1]; normal diet rats
  Liver CAT: 306.14 U/mg protein
  Liver GSHPx: 50.29 U/mg protein
  Liver SOD: 198.57 U/mg protein
  Liver TBARS: 1.56 nmol/mg protein
  Serum TAC: 1.19 U/mL
  Serum TBARS: 0.67 nmol/mL
[2]
  enhancement of liver PPAR-α level: 3.53 fold
[3]; HFD rats, 2.5 mg/kg
  Adiponectin: decreased
  Glucose: significantly reduced
  Insulin: significantly reduced
  Leptin: significantly reduced
[3]; normal diet rats
  Adiponectin: 10.8 µg/mL
  FFA: 1.12 mM
  Glucose: 78.29 mg/dL
  HDL-C: 17.00 mg/dL
  Insulin: 1.73 ng/mL
  LDL-C: 25.00 mg/dL
  Leptin: 30.43 ng/mL
  T-C (total cholesterol): 48.6 mg/dL
  TG: 20.57 mg/dL
[4]
  ACC alpha expression (FIG. 4 bar result): 0.9
  PPAR gamma expression (FIG. 4 bar result): 0.7
[5]
  iNOS in retina tissue (effect in words): decreased
[6]; HFD rats
  Feed intake: 16.87 g/day
[6]; HFD rats, 2.5 mg/kg
  Final BW: decrease
  Liver (weight): decreased
  Visceral fat: decreased
[6]; [8]
  Final BW: 325.43 g
  Liver (weight): 18.46 g
  Visceral fat: 14.93 g
[6]; [9]
  Final BW: significantly reduced
  Visceral fat: a tendency towards a decrease
[6]; normal diet rats
  Feed intake: 23.88 g/day
  Final BW: 290.29 g
  Liver (weight): 12.74 g
  Visceral fat: 7.75 g
[7]; FIG. 13
  BCO2 expression in liver tissue (effect in words): upregulate
[7]; HFD rats, FIG. 16
  Nrf2 expression in liver tissue (effect in words): decrease
[7]; HFD rats, FIG. 17
  NFkB in liver tissue (effect in words): decreased
[7]; HFD rats, FIG. 18
  HO-1 in liver tissue (effect in words): decreased
[7]; HFD rats, FIG. 19
  IRS-1 in liver (effect in words): increased
[7]; [10]
  enhancement of liver HO-1 level: 1.41 fold
  enhancement of liver p-IRS1 level: 1.33 fold
  inhibition of liver NFkB expression: 22%
  inhibition of liver TNF-α expression: 14%
[7]; HFD treated rats, FIG. 15
  PPAR gamma in liver tissue (effect in words): activated
